Columns and labels:
FAAH = target: T1, FAAH (Mus musculus, UniProt O08914); experiment: In vitro competitive activity-based protein profiling (mouse), FAAH gel band; type: biochemical; conditions: for IC50: mouse; for inhibition at 1 µM: read-out: FAAH % inh. 1 μM
T1 construct: Proteomes (mouse brain membrane fraction or cell lysates); from tissue; host or cells: mouse brain membrane fraction (or cell lysates)
T1 sequence (O08914 1-579): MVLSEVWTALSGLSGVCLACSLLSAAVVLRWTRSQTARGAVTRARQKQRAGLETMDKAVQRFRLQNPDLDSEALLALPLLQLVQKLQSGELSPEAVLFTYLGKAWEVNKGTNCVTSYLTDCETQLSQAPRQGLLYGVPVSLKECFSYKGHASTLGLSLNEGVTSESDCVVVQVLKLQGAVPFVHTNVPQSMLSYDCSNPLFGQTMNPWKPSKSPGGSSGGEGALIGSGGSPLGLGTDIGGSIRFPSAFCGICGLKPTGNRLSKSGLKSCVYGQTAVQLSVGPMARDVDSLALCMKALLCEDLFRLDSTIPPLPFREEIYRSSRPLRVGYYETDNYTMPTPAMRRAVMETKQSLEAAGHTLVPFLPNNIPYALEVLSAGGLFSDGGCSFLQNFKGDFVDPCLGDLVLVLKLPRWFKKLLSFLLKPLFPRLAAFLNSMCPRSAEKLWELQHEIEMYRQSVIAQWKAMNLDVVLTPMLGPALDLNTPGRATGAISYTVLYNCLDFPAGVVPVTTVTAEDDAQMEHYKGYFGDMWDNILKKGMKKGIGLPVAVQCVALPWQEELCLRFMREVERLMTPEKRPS
Method in brief: (§1)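 Mouse brain membrane proteome or cell lysate (1.0 mg/mL total protein) was preincubated with varying inhibitor concentrations for 30 min at 37 °C, then labelled for 30 min at 37 °C with FP-Rh or HT-01 (50 μM stock in DMSO). Activity was read as fluorescent band intensity after SDS-PAGE.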

MAGL = target: T2, MAGL (Mus musculus, UniProt O35678); experiment: In vitro competitive activity-based protein profiling (mouse), MAGL gel band; type: biochemical; conditions: for IC50: mouse; for inhibition at 1 µM: read-out: MAGL % inh. 1 μM
T2 construct: Proteomes (mouse brain membrane fraction or cell lysates); from tissue; host or cells: mouse brain membrane fraction (or cell lysates)
T2 sequence (O35678 1-303): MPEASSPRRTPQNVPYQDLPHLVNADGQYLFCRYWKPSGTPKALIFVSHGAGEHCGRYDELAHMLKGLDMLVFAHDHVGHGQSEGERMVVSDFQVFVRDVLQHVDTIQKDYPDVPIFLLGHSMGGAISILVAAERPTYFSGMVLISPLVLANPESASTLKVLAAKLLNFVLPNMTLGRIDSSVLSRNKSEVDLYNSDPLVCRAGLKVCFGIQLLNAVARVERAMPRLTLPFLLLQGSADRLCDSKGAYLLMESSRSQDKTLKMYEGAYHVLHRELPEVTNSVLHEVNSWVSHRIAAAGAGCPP
Method in brief: as §1

| IC50 (FAAH) | inhibition at 1 µM (FAAH) | IC50 (MAGL) | inhibition at 1 µM (MAGL) | Structure (SMILES) |
| --- | --- | --- | --- | --- |
| 1 to 10 µM | 0 to 25% | 0.1 to 1 µM | ≥ 75% | CS(=O)(=O)Nc1ccn(C(=O)N2CCC3(CCCN3Cc3cccc(N4CCCCC4)c3Cl)CC2)n1 [Example 144, N-(1-(1-(2-chloro-3-(piperidin-1-yl)benzyl)-1,8-diazaspiro[4.5]decane-8-carbonyl)-1H-pyrazol-3-yl) methanesulfonamide] |
| 1 to 10 µM | 0 to 25% | 0.1 to 1 µM | ≥ 75% | CS(=O)(=O)Nc1ccn(C(=O)N2CCC3(CCCN3Cc3cccc(N4CC5CCC(C4)O5)c3Cl)CC2)n1 [Example 145, N-(1-(1-(3-(8-oxa-3-azabicyclo[3.2.1]octan-3-yl)-2-chlorobenzyl)-1,8-diazaspiro[4.5]decane-8-carbonyl)-1H-pyrazol-3-yl) methanesulfonamide] |
|  | 0 to 25% |  | ≥ 75% | Cc1ccc(CN2CCN(C(=O)n3ccc(NS(C)(=O)=O)n3)CC2)c(N2CCOCC2)c1 [Example 147, N-(1-(4-(4-methyl-2-morpholinobenzyl)piperazine-1-carbonyl)-1H-pyrazol-3-yl) methanesulfonamide] |
|  | 0 to 25% |  | 0 to 25% | CS(=O)(=O)Nc1ccn(C(=O)N2CCC3(CCCN3Cc3cccc(Cl)c3)CC2)n1 [Example 148, N-(1-(1-(3-chlorobenzyl)-1,8-diazaspiro[4.5]decane-8-carbonyl)-1H-pyrazol-3-yl)methanesulfonamide] |
|  | 0 to 25% |  | 50 to 75% | Cc1c(CN2CCCC23CCN(C(=O)n2ccc(NS(C)(=O)=O)n2)CC3)cccc1N1CC2CCC(C1)O2 [Example 149, N-(1-(1-(3-(8-oxa-3-azabicyclo[3.2.1]octan-3-yl)-2-methylbenzyl)-1,8-diazaspiro[4.5]decane-8-carbonyl)-1H-pyrazol-3-yl) methanesulfonamide] |
| 0.1 to 1 µM | ≥ 75% | 0.1 to 1 µM | ≥ 75% | Cc1cc(-c2ccccc2)ccc1CN1CCN(C(=O)n2ccc(NS(C)(=O)=O)n2)CC1 [Example 150, N-(1-(4-((3-methyl-[1,1′-biphenyl]-4-yl)methyl)piperazine-1-carbonyl)-1H-pyrazol-3-yl) methanesulfonamide] |
|  | 25 to 50% |  | ≥ 75% | COc1cc(-c2ccccc2)ccc1CN1CCN(C(=O)n2ccc(NS(C)(=O)=O)n2)CC1 [Example 151, N-(1-(4-((3-methoxy-[1,1′-biphenyl]-4-yl)methyl)piperazine-1-carbonyl)-1H-pyrazol-3-yl) methanesulfonamide] |
|  | 0 to 25% |  | ≥ 75% | CS(=O)(=O)Nc1ccn(C(=O)N2CCN(Cc3ccc(C(F)(F)F)c(N4CCCC4)c3)CC2)n1 [Example 153, N-(1-(4-(3-(pyrrolidin-1-yl)-4-(trifluoromethyl)benzyl)piperazine-1-carbonyl)-1H-pyrazol-3-yl) methanesulfonamide] |
|  | 0 to 25% |  | ≥ 75% | CS(=O)(=O)Nc1ccn(C(=O)N2CCN(Cc3ccc(C(F)(F)F)c(Cl)c3)CC2)n1 [Example 154, N-(1-(4-(3-chloro-4-(trifluoromethyl)benzyl)piperazine-1-carbonyl)-1H-pyrazol-3-yl) methanesulfonamide] |
|  | 0 to 25% |  | ≥ 75% | CS(=O)(=O)Nc1ccn(C(=O)N2CCN(Cc3cc(N4CCOCC4)cc(C(F)(F)F)c3)CC2)n1 [Example 155, N-(1-(4-(3-morpholino-5-(trifluoromethyl)benzyl)piperazine-1-carbonyl)-1H-pyrazol-3-yl) methanesulfonamide] |
|  | 0 to 25% |  | 25 to 50% | CS(=O)(=O)Nc1ccn(C(=O)N2CCN(Cc3ccc(N4CCOCC4)cc3C(F)(F)F)CC2)n1 [Example 157, N-(1-(4-(4-morpholino-2-(trifluoromethyl)benzyl)piperazine-1-carbonyl)-1H-pyrazol-3-yl) methanesulfonamide] |
| 0.1 to 1 µM | ≥ 75% | ≤ 0.1 µM | ≥ 75% | CS(=O)(=O)Nc1ccn(C(=O)N2CCN(Cc3ccc(-c4ccccc4)cc3Cl)CC2)n1 [Example 158, N-(1-(4-((3-chloro-[1,1′-biphenyl]-4-yl)methyl)piperazine-1-carbonyl)-1H-pyrazol-3-yl) methanesulfonamide] |
|  | 0 to 25% |  | ≥ 75% | CS(=O)(=O)Nc1ccn(C(=O)N2CCC3(CCCN3Cc3ccc(C(F)(F)F)c(N4CCCC4)c3)CC2)n1 [Example 160, N-(1-(1-(3-(pyrrolidin-1-yl)-4-(trifluoromethyl)benzyl)-1,8-diazaspiro[4.5]decane-8-carbonyl)-1H-pyrazol-3-yl) methanesulfonamide] |
|  | 0 to 25% |  | ≥ 75% | CS(=O)(=O)Nc1ccn(C(=O)N2CCC3(CCCN3Cc3cc(N4CCOCC4)cc(C(F)(F)F)c3)CC2)n1 [Example 162, N-(1-(1-(3-morpholino-5-(trifluoromethyl)benzyl)-1,8-diazaspiro[4.5]decane-8-carbonyl)-1H-pyrazol-3-yl) methanesulfonamide] |
|  | 0 to 25% |  | ≥ 75% | CS(=O)(=O)Nc1ccn(C(=O)N2CCC3(CCCN3Cc3cc(N4CCCC4)cc(C(F)(F)F)c3)CC2)n1 [Example 163, N-(1-(1-(3-(pyrrolidin-1-yl)-5-(trifluoromethyl)benzyl)-1,8-diazaspiro[4.5]decane-8-carbonyl)-1H-pyrazol-3-yl) methanesulfonamide] |
|  | 0 to 25% |  | 0 to 25% | CS(=O)(=O)Nc1ccn(C(=O)N2CCC3(CCCN3Cc3ccc(N4CCOCC4)cc3C(F)(F)F)CC2)n1 [Example 164, N-(1-(1-(4-morpholino-2-(trifluoromethyl)benzyl)-1,8-diazaspiro[4.5]decane-8-carbonyl)-1H-pyrazol-3-yl)methanesulfonamide] |
|  | 0 to 25% |  | ≥ 75% | CS(=O)(=O)Nc1ccn(C(=O)N2CCN(Cc3ccc(C(F)(F)F)c(N4CCOCC4)c3)CC2)n1 [Example 168, N-(1-(4-(3-morpholino-4-(trifluoromethyl)benzyl)piperazine-1-carbonyl)-1H-pyrazol-3-yl) methanesulfonamide] |
|  | 0 to 25% |  | 0 to 25% | CS(=O)(=O)Nc1ccn(C(=O)N2CCN(Cc3ccc(N4CCC(C(=O)O)CC4)c(C(F)(F)F)c3)CC2)n1 [Example 169, 1-(4-((4-(3-(methylsulfonamido)-1H-pyrazole-1-carbonyl)piperazin-1-yl)methyl)-2-(trifluoromethyl)phenyl)piperidine-4-carboxylic acid] |
|  | 0 to 25% |  | 25 to 50% | CS(=O)(=O)Nc1ccn(C(=O)N2CCN(Cc3ccc(N4CCOCC4)c(Cl)c3)CC2)n1 [Example 170, N-(1-(4-(3-chloro-4-morpholinobenzyl)piperazine-1-carbonyl)-1H-pyrazol-3-yl) methanesulfonamide] |
|  | 0 to 25% |  | ≥ 75% | CS(=O)(=O)Nc1ccn(C(=O)N2CCN(Cc3cc(Cl)cc(C(F)(F)F)c3)CC2)n1 [Example 176, N-(1-(4-(3-chloro-5-(trifluoromethyl)benzyl)piperazine-1-carbonyl)-1H-pyrazol-3-yl) methanesulfonamide] |
|  | 0 to 25% |  | ≥ 75% | CS(=O)(=O)Nc1ccn(C(=O)N2CCN(Cc3cc(C(F)(F)F)cc(C(F)(F)F)c3)CC2)n1 [Example 177, N-(1-(4-(3,5-bis(trifluoromethyl)benzyl)piperazine-1-carbonyl)-1H-pyrazol-3-yl) methanesulfonamide] |
|  | 0 to 25% |  | ≥ 75% | CS(=O)(=O)Nc1ccn(C(=O)N2CCN(Cc3cc(Cl)ccc3N3CCCC3)CC2)n1 [Example 179, N-(1-(4-(5-chloro-2-(pyrrolidin-1-yl)benzyl)piperazine-1-carbonyl)-1H-pyrazol-3-yl) methanesulfonamide] |
|  | 0 to 25% |  | 50 to 75% | CS(=O)(=O)Nc1ccn(C(=O)N2CCN(Cc3cc(N4CCOCC4)ccc3C(F)(F)F)CC2)n1 [Example 181, N-(1-(4-(5-morpholino-2-(trifluoromethyl)benzyl)piperazine-1-carbonyl)-1H-pyrazol-3-yl) methanesulfonamide] |
|  | 0 to 25% |  | 0 to 25% | CS(=O)(=O)Nc1ccn(C(=O)N2CCN(C(c3ccc(Cl)cc3)c3ccc(Cl)cc3)CC2)n1 [Example 182, N-(1-(4-(bis(4-chlorophenyl)methyl)piperazine-1-carbonyl)-1H-pyrazol-3-yl) methanesulfonamide] |

From patent US10519134B2, “Pyrazole compounds and methods of making and using same” (Lundbeck La Jolla Research Center, Inc., priority 2015, dated 2019)
